Patent US20020137929A1, “1 - (3-heterocyclylphenyl) isothiourea, -isourea, -guanidine and -amidine herbicidal agents” (Intellectual Property Department, BASF Aktiengesellschaft, priority 1998, published 2002)

Key:
[1] = tested on: IPOSS (Morningglory Spp.); experiment: Preemergence herbicidal evaluation; assay type: in vivo, Ipomoea Spp.; conditions: rated 4-5 weeks after treatment
Description: (§1) Results of herbicide evaluation are expressed on a rating scale (0-9). The scale is based upon a visual observation of plant stand, vigor, malformation, size, chlorosis and overall plant appearance as compared with a control.
The preemergence herbicidal activity of the test compounds of the present invention is exemplified by the following tests in which the seeds of a variety of monocotyledonous and dicotyledonous plants are separately mixed with potting soil and planted on top of approximately one inch of soil in separate pint cups. After planting, the cups are sprayed with the selected aqueous acetone solution containing test compound in sufficient quantity to provide the equivalent of about 0.0156 to 0.500 kg per hectare of test compound per cup. The treated cups are then placed on greenhouse benches, watered and cared for in accordance with conventional greenhouse procedures. From four to five weeks after treatment, the tests are terminated and each cup is examined and rated according to the rating system provided in Example 37.
The compounds evaluated are reported by compound number given in Example 37.

MOOVA (Monochoria) = experiment: Postemergence weed control under flooded paddy conditions; assay type: in vivo, Monochoria vaginalis; conditions: postemergence weeds
Procedure, shortened: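 Herbicidal effect is judged by eye on a 0–9 scale versus control, 3–4 weeks after dosing. Dosing is into flood water kept 1.5–3 cm over the soil, at about 0.0313–0.500 kg/ha in aqueous/acetone 50/50 v/v, on 3–5 cm weeds and 1.5–2.5-leaf rice seedlings.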

[2] = tested on: TRZAWR (Wheat, Winter, cv Riband); experiment: Preemergence herbicidal evaluation; assay type: in vivo, Triticum aestivum; conditions: rated 4-5 weeks after treatment; for TRZAWR rating: preemergence, 0-9 scale
Procedure, shortened: (§2)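 Scores use a 0–9 visual scale covering stand, vigor, malformation, size and chlorosis relative to controls, rated four to five weeks after treatment. Before emergence, soil-planted seeds were sprayed with compound in aqueous acetone at roughly 0.0156–0.500 kg/ha and held in the greenhouse.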

ABUTH (Velvetleaf) = experiment: Preemergence herbicidal evaluation; assay type: in vivo, Abutilon theophrasti; conditions: rated 4-5 weeks after treatment; for ABUTH rating: preemergence, 0-9 scale
Procedure, shortened: as §2

[3] = tested on: SAGPY (Arrowhead (Pygmaea)); experiment: Preemergence weed control under flooded paddy conditions; assay type: in vivo, Sagittaria pygmaea; conditions: rated 3-4 weeks after treatment
Procedure, shortened: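 Seeds or propagules sown in silt loam kept flooded 1.5-3 cm; compounds in 50/50 acetone/water pipetted into flood water at about 0.0313 to 0.500 kg/ha. Greenhouse; visual 0-9 rating versus untreated control 3-4 weeks after treatment.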

[4] = tested on: IPOSS (Morningglory Spp.); experiment: Postemergence herbicidal evaluation; assay type: in vivo, Ipomoea Spp.
Method: In the tests, seedling plants are grown in jiffy flats for about two weeks. The test compounds are dispersed in 50/50 acetone/water mixtures containing 0.5% TWEEN®20, a polyoxyethylene sorbitan monolaurate surfactant of Atlas Chemical Industries, in sufficient quantities to provide the equivalent of about 0.0156 kg to 0.500 kg per hectare of active compound when applied to the plants through a spray nozzle operating at 40 psi for a predetermined time. After spraying, the plants are placed on greenhouse benches and are cared for in accordance with conventional greenhouse procedures. From four to five weeks after treatment, the seedling plants are examined and rated according to the rating system set forth below. Where more than one test is involved for a given compound, the data are averaged.
Plant species employed in these evaluations are reported by header abbreviation, common name and scientific name.
as §1

CYPIR (Rice Flatsedge) = experiment: Preemergence weed control under flooded paddy conditions; assay type: in vivo, Cyperus iria; conditions: rated 3-4 weeks after treatment
Procedure, shortened: (§3)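 Visual injury scored 0-9 against control three to four weeks post-treatment, greenhouse-grown. Application: acetone/water (50/50) solutions dosed directly into flood water (1.5-3 cm over silt loam, planted top 0.5 cm), roughly 0.0313 to 0.500 kg/ha active ingredient.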

[5] = tested on: ECHORC (Watergrass (Calif.)); experiment: as above; assay type: in vivo, Echinochloa oryzoides; conditions: rated 3-4 weeks after treatment
Procedure, shortened: as §3

ORYSAT (Rice, Tebonnet) [6] = experiment: Rice tolerance to post-transplant applications, flooded paddy conditions (Table III); assay type: in vivo, Oryza sativa, (L.) Tebonnet; conditions: post-transplant rice, flooded paddy, rated 3-4 weeks after treatment
Procedure, shortened: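 Injury scored 0-9 by eye against untreated control, judging stand, vigor, malformation, size and chlorosis, three to four weeks after treatment. Compound in 50/50 aqueous/acetone, about 0.0313 to 0.500 kg/ha, was applied to paddy water (1.5 to 3 cm depth) three days after transplanting paired ten-day-old Tebonnet rice seedlings.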

ORYSAT (Rice, Tebonnet) [7] = experiment: Rice tolerance to post-transplant applications, flooded paddy conditions (Table IV); assay type: in vivo, Oryza sativa, (L.) Tebonnet; conditions: flooded paddy, post-transplant rice, rated 3 to 4 weeks after treatment
Procedure, shortened: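 Injury ratings (0–9 scale covering stand, vigor, malformation, size, chlorosis and overall appearance versus control) were made three to four weeks after treatment. Test material, about 0.0313 to 0.500 kg/ha a.i. in 50/50 v/v aqueous/acetone, was added to flood water 1.5 to 3 cm deep over 3 to 5 cm weeds and 1.5 to 2.5 leaf rice.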

CN1C(=O)CS/C1=N/c1cc(-n2c(=O)cc(C(F)(F)F)n(C)c2=O)c(F)cc1Cl [Compound 7]
IPOSS preemergence herbicidal rating ([1]; rate 0.0157 kg/ha): 9.0 | IPOSS preemergence herbicidal rating ([1]; rate 0.0313 kg/ha): 9.0 | IPOSS preemergence herbicidal rating ([1]; rate 0.0625 kg/ha): 9.0 | IPOSS preemergence herbicidal rating ([1]; rate 0.1250 kg/ha): 9.0 | IPOSS preemergence herbicidal rating ([1]; rate 0.2500 kg/ha): 9.0 | Herbicidal rating MOOVA (MOOVA (Monochoria); rate 0.0313 kg/ha, 3-4 weeks after treatment): 9.0 | Herbicidal rating MOOVA (MOOVA (Monochoria); rate 0.0625 kg/ha, 3-4 weeks after treatment): 9.0 | Herbicidal rating MOOVA (MOOVA (Monochoria); rate 0.1250 kg/ha, 3-4 weeks after treatment): 9.0 | Herbicidal rating MOOVA (MOOVA (Monochoria); rate 0.2500 kg/ha, 3-4 weeks after treatment): 9.0 | TRZAWR preemergence herbicidal rating ([2]; rate 0.0157 kg/ha): 5.0 | TRZAWR preemergence herbicidal rating ([2]; rate 0.0313 kg/ha): 6.5 | TRZAWR preemergence herbicidal rating ([2]; rate 0.0625 kg/ha): 7.5 | TRZAWR preemergence herbicidal rating ([2]; rate 0.1250 kg/ha): 8.5 | TRZAWR preemergence herbicidal rating ([2]; rate 0.2500 kg/ha): 8.5 | ABUTH preemergence herbicidal rating (ABUTH (Velvetleaf); rate 0.0157 kg/ha): 9.0 | ABUTH preemergence herbicidal rating (ABUTH (Velvetleaf); rate 0.0313 kg/ha): 9.0 | ABUTH preemergence herbicidal rating (ABUTH (Velvetleaf); rate 0.0625 kg/ha): 9.0 | ABUTH preemergence herbicidal rating (ABUTH (Velvetleaf); rate 0.1250 kg/ha): 9.0 | ABUTH preemergence herbicidal rating (ABUTH (Velvetleaf); rate 0.2500 kg/ha): 9.0 | Herbicidal rating SAGPY ([3]; 0.0313 kg/ha): 2.0 | Herbicidal rating SAGPY ([3]; 0.0625 kg/ha): 4.0 | Herbicidal rating SAGPY ([3]; 0.1250 kg/ha): 8.0 | Herbicidal rating SAGPY ([3]; 0.2500 kg/ha): 9.0 | IPOSS herbicidal rating ([4]; rate 0.0157 kg/ha): 6.0 | IPOSS herbicidal rating ([4]; rate 0.0313 kg/ha): 7.0 | IPOSS herbicidal rating ([4]; rate 0.0625 kg/ha): 9.0 | Herbicidal rating CYPIR (CYPIR (Rice Flatsedge); 0.0313 kg/ha): 8.0 | Herbicidal rating CYPIR (CYPIR (Rice Flatsedge); 0.0625 kg/ha): 9.0 | Herbicidal rating CYPIR (CYPIR (Rice Flatsedge); 0.1250 kg/ha): 9.0 | Herbicidal rating CYPIR (CYPIR (Rice Flatsedge); 0.2500 kg/ha): 9.0 | Herbicidal rating ECHORC ([5]; 0.0313 kg/ha): 8.0 | Herbicidal rating ECHORC ([5]; 0.0625 kg/ha): 9.0 | Herbicidal rating ECHORC ([5]; 0.1250 kg/ha): 9.0 | Herbicidal rating ECHORC ([5]; 0.2500 kg/ha): 9.0

CN1C(=O)C(CC(=O)OCCF)SC1=Nc1cc(-n2c(=O)cc(C(F)(F)F)n(C)c2=O)c(F)cc1Cl (stereo not drawn) [Compound 93, 2-Fluoroethyl 2-{{2-chloro-5-[3,6-dihydro-3-methyl-2,6-dioxo-4-(trifluoromethyl)-1(2H)-pyrimidinyl]-4-fluorophenyl}imino}-3-methyl-4-oxo-5-thiazolidineacetate]
Herbicidal rating MOOVA (MOOVA (Monochoria); Rate 0.0313 kg/ha, rated 3 to 4 weeks after treatment): 9.0 | Herbicidal rating MOOVA (MOOVA (Monochoria); Rate 0.0625 kg/ha, rated 3 to 4 weeks after treatment): 9.0 | Herbicidal rating MOOVA (MOOVA (Monochoria); Rate 0.1250 kg/ha, rated 3 to 4 weeks after treatment): 9.0 | Herbicidal rating MOOVA (MOOVA (Monochoria); Rate 0.2500 kg/ha, rated 3 to 4 weeks after treatment): 9.0 | TRZAWR rating ([2]; 0.0313 kg/ha): 0.0 | TRZAWR rating ([2]; 0.0625 kg/ha): 0.0 | TRZAWR rating ([2]; 0.1250 kg/ha): 2.0 | TRZAWR rating ([2]; 0.2500 kg/ha): 7.0 | ABUTH rating (ABUTH (Velvetleaf); 0.0313 kg/ha): 5.0 | ABUTH rating (ABUTH (Velvetleaf); 0.0625 kg/ha): 9.0 | ABUTH rating (ABUTH (Velvetleaf); 0.1250 kg/ha): 9.0 | ABUTH rating (ABUTH (Velvetleaf); 0.2500 kg/ha): 9.0 | SAGPY herbicidal effect rating ([3]; 0.0313 kg/ha): 0.0 | SAGPY herbicidal effect rating ([3]; 0.0625 kg/ha): 0.0 | SAGPY herbicidal effect rating ([3]; 0.1250 kg/ha): 3.0 | SAGPY herbicidal effect rating ([3]; 0.2500 kg/ha): 9.0 | ORYSAT herbicidal effect rating (rice tolerance) (ORYSAT (Rice, Tebonnet) [6]; 0.0313 kg/ha): 0.0 | ORYSAT herbicidal effect rating (rice tolerance) (ORYSAT (Rice, Tebonnet) [6]; 0.0625 kg/ha): 0.0 | ORYSAT herbicidal effect rating (rice tolerance) (ORYSAT (Rice, Tebonnet) [6]; 0.1250 kg/ha): 0.0 | ORYSAT herbicidal effect rating (rice tolerance) (ORYSAT (Rice, Tebonnet) [6]; 0.2500 kg/ha): 3.0 | Herbicidal rating ORYSAT (rice tolerance) (ORYSAT (Rice, Tebonnet) [7]; Rate 0.0313 kg/ha): 0.0 | Herbicidal rating ORYSAT (rice tolerance) (ORYSAT (Rice, Tebonnet) [7]; Rate 0.0625 kg/ha): 0.0 | Herbicidal rating ORYSAT (rice tolerance) (ORYSAT (Rice, Tebonnet) [7]; Rate 0.1250 kg/ha): 0.0 | Herbicidal rating ORYSAT (rice tolerance) (ORYSAT (Rice, Tebonnet) [7]; Rate 0.2500 kg/ha): 3.0 | CYPIR herbicidal effect rating (CYPIR (Rice Flatsedge); 0.0313 kg/ha): 0.0 | CYPIR herbicidal effect rating (CYPIR (Rice Flatsedge); 0.0625 kg/ha): 0.0 | CYPIR herbicidal effect rating (CYPIR (Rice Flatsedge); 0.1250 kg/ha): 0.0 | CYPIR herbicidal effect rating (CYPIR (Rice Flatsedge); 0.2500 kg/ha): 0.0 | ECHORC herbicidal effect rating ([5]; 0.0313 kg/ha): 0.0 | ECHORC herbicidal effect rating ([5]; 0.0625 kg/ha): 3.0 | ECHORC herbicidal effect rating ([5]; 0.1250 kg/ha): 4.0 | ECHORC herbicidal effect rating ([5]; 0.2500 kg/ha): 7.0
